Consider 23 molecules from patent publication US8569298B2, “Pyridine compounds” (Astrazeneca AB, priority 2008, dated 2013).

For this test, the target named is T1, FAK enzyme (6 His tagged kinase domain, GenBank NP—722560) (Homo sapiens, UniProt Q05397).
T1 construct: 6 His; made in house; host or cells: insect cell culture infected with baculovirus
The experiment in a line: In vitro enzyme assay (a): sandwich ELISA of FAK tyrosine kinase activity on polyGAT peptide, TMB colorimetric endpoint. In kind it is biochemical. The conditions noted are these: in vitro Enzyme Assay test (a); ATP at Km; geometric mean of n > 1 measurements, values marked * tested once. The procedure, abridged:
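Recombinant His-tagged FAK kinase domain (baculovirus/insect cells) phosphorylated plate-coated polyGAT with ATP at Km, MgCl2/MnCl2, HEPES pH 7.4, 25 min at room temperature before EDTA stop. Phosphotyrosine detected by HRP-4G10 antibody and TMB absorbance at 450 nm; IC50 from 12-point curve anchored to DMSO and staurosporine controls.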
Background: An ELISA detects its analyte on a solid surface through an enzyme-linked reagent.

T1 sequence (Q05397 422-680 limits assumed): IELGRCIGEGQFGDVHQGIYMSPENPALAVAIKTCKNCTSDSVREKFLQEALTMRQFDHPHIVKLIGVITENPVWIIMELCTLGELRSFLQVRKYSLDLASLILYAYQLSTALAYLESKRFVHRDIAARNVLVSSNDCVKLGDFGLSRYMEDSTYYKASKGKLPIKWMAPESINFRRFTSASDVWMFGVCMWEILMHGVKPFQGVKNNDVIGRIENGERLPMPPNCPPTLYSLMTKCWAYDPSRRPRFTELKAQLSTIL

Take `CNC(=O)c1ccccc1Nc1cc(Nc2c[nH]nc2C)ncc1C(F)(F)F` [Example 12.09, N-methyl-2-[[2-[(3-methyl-1H-pyrazol-4-yl)amino]-5-(trifluoromethyl)-4-pyridyl]amino]benzamide]: the midpoint of inhibition, the IC50, lay at 3 nM.

Consider `CNC(=O)c1ccccc1Nc1cc(Nc2cn(C)nc2COC)ncc1C(F)(F)F` [Example 12.10, 2-[[2-[[3-(methoxymethyl)-1-methyl-pyrazol-4-yl]amino]-5-(trifluoromethyl)-4-pyridyl]amino]-N-methyl-benzamide], for which it took 10 nM to reach half-maximal inhibition (IC50).

Take `CNC(=O)c1ccccc1Nc1cc(Nc2cn(C)nc2C#N)ncc1C(F)(F)F` [Example 12.11, 2-[[2-[(3-cyano-1-methyl-pyrazol-4-yl)amino]-5-(trifluoromethyl)-4-pyridyl]amino]-N-methyl-benzamide]: inhibition was half-maximal at 15 nM (IC50). This IC50 is about 1.5-fold higher than that of the molecule before.

On to `CNC(=O)c1ccccc1Nc1cc(Nc2cn(C)nc2OC)ncc1C(F)(F)F` [Example 12.12, 2-[[2-[(3-methoxy-1-methyl-pyrazol-4-yl)amino]-5-(trifluoromethyl)-4-pyridyl]amino]-N-methyl-benzamide], for which inhibition was half-maximal at 3 nM (IC50). This IC50 is about 5-fold lower than that of the molecule before.

With `Cc1nn(C(C)C)cc1Nc1cc(Nc2cccc3c2C(=O)N(C)CC3)c(Cl)cn1` [Example 13.01, 8-[[5-chloro-2-[(1-isopropyl-3-methyl-pyrazol-4-yl)amino]-4-pyridyl]amino]-2-methyl-3,4-dihydroisoquinolin-1-one], the IC50 (commonly the point on the concentration scale where inhibition reaches its midpoint) amounted to 13 nM.

Regarding `CNC(=O)c1ccccc1Nc1cc(Nc2cn(C(C)C)nc2C)ncc1C(F)(F)F` [Example 13.02, 2-[[2-[(1-isopropyl-3-methyl-pyrazol-4-yl)amino]-5-(trifluoromethyl)-4-pyridyl]amino]-N-methyl-benzamide], the IC50 was 21 nM.

Turning to `CNC(=O)c1ccccc1Nc1cc(Nc2cn(C(F)F)nc2C)ncc1C(F)(F)F` [Example 13.03, 2-[[2-[[1-(difluoromethyl)-3-methyl-pyrazol-4-yl]amino]-5-(trifluoromethyl)-4-pyridyl]amino]-N-methyl-benzamide], the IC50 was found to be 50 nM.

`Cc1nn(C(F)F)cc1Nc1cc(Nc2cccc3c2C(=O)N(C)CC3)c(Cl)cn1` [Example 13.04, 8-[[5-chloro-2-[[1-(difluoromethyl)-3-methyl-pyrazol-4-yl]amino]-4-pyridyl]amino]-2-methyl-3,4-dihydroisoquinolin-1-one] returned an IC50 of 23 nM.

In the case of `Cc1nn(CCO)cc1Nc1cc(Nc2cccc3c2C(=O)N(C)CC3)c(Cl)cn1` [Example 13.05, 8-[[5-chloro-2-[[1-(2-hydroxyethyl)-3-methyl-pyrazol-4-yl]amino]-4-pyridyl]amino]-2-methyl-3,4-dihydroisoquinolin-1-one], the IC50 was 4 nM. Against the preceding molecule, the IC50 is about 5.8-fold lower.

On to `CNC(=O)c1ccccc1Nc1cc(Nc2cn(CCO)nc2C)ncc1C(F)(F)F` [Example 13.06, 2-[[2-[[1-(2-hydroxyethyl)-3-methyl-pyrazol-4-yl]amino]-5-(trifluoromethyl)-4-pyridyl]amino]-N-methyl-benzamide], for which half-maximal inhibition (IC50) was put at 6 nM. This IC50 is about 1.5-fold higher than that of the molecule before.

`CONC(=O)c1c(Nc2cc(Nc3cn(C)nc3C)ncc2C(F)(F)F)cccc1OC` [Example 14.01, 2-[[2-[(1,3-dimethylpyrazol-4-yl)amino]-5-(trifluoromethyl)-4-pyridyl]amino]-N,6-dimethoxy-benzamide] yielded an IC50 of 4 nM.

Take `CONC(=O)c1ccccc1Nc1cc(Nc2cc(C)nn2C)ncc1C(F)(F)F` [Example 14.02, 2-[[2-[(2,5-dimethylpyrazol-3-yl)amino]-5-(trifluoromethyl)-4-pyridyl]amino]-N-methoxy-benzamide]: the IC50 came to 2 nM.

As to `CONC(=O)c1c(Nc2cc(Nc3cc(C)nn3C)ncc2C(F)(F)F)cccc1OC` [Example 14.03, 2-[[2-[(2,5-dimethylpyrazol-3-yl)amino]-5-(trifluoromethyl)-4-pyridyl]amino]-N,6-dimethoxy-benzamide], the IC50 is 6 nM.

The molecule `CONC(=O)c1ccc(F)cc1Nc1cc(Nc2cn(C)nc2C)ncc1C(F)(F)F` [Example 15.01, 2-[[2-[(1,3-dimethylpyrazol-4-yl)amino]-5-(trifluoromethyl)-4-pyridyl]amino]-4-fluoro-N-methoxy-benzamide] had an IC50 of 4 nM.

`CONC(=O)c1ccc(F)cc1Nc1cc(Nc2cc(C)nn2C)ncc1C(F)(F)F` [Example 15.02, 2-[[2-[(2,5-dimethylpyrazol-3-yl)amino]-5-(trifluoromethyl)-4-pyridyl]amino]-4-fluoro-N-methoxy-benzamide] registered an IC50 of 3 nM.

`CNC(=O)c1ccc(F)cc1Nc1cc(Nc2cc(C)nn2C)ncc1C(F)(F)F` [Example 15.03, 2-[[2-[(2,5-dimethylpyrazol-3-yl)amino]-5-(trifluoromethyl)-4-pyridyl]amino]-4-fluoro-N-methyl-benzamide]: the IC50 was determined as 6 nM.

Molecule `CNC(=O)c1c(Nc2cc(Nc3c(C)nn(C)c3C)ncc2C(F)(F)F)cccc1OC` [Example 15.04, 2-Methoxy-N-methyl-6-[[5-(trifluoromethyl)-2-[(1,3,5-trimethylpyrazol-4-yl)amino]-4-pyridyl]amino]benzamide] came in with an IC50 of 24 nM. This IC50 is about 4-fold higher than that of the molecule before.

`CONC(=O)c1c(Nc2cc(Nc3c(C)nn(C)c3C)ncc2C(F)(F)F)cccc1OC` [Example 15.05, N,2-dimethoxy-6-[[5-(trifluoromethyl)-2-[(1,3,5-trimethylpyrazol-4-yl)amino]-4-pyridyl]amino]benzamide] came in with an IC50 of 10 nM.

`CONC(=O)c1ccccc1Nc1cc(Nc2c(C)nn(C)c2C)ncc1C(F)(F)F` [Example 15.06, N-methoxy-2-[[5-(trifluoromethyl)-2-[(1,3,5-trimethylpyrazol-4-yl)amino]-4-pyridyl]amino]benzamide] registered an IC50 of 5 nM.

In turn, `CCONC(=O)c1ccccc1Nc1cc(Nc2cc(C)nn2C)ncc1C(F)(F)F` [Example 15.07, 2-[[2-[(2,5-dimethylpyrazol-3-yl)amino]-5-(trifluoromethyl)-4-pyridyl]amino]-N-ethoxy-benzamide] registered an IC50 of 113 nM.

Regarding `Cc1cc(Nc2cc(Nc3ccccc3C(=O)NOCCO)c(C(F)(F)F)cn2)n(C)n1` [Example 15.08, 2-[[2-[(2,5-dimethylpyrazol-3-yl)amino]-5-(trifluoromethyl)-4-pyridyl]amino]-N-(2-hydroxyethoxy)benzamide], the IC50 turned out to be 620 nM. This IC50 is about 5.5-fold higher than that of the molecule before.

Molecule `CONC(=O)c1cc(F)ccc1Nc1cc(Nc2cc(C)nn2C)ncc1C(F)(F)F` [Example 16.01, 2-[[2-[(2,5-dimethylpyrazol-3-yl)amino]-5-(trifluoromethyl)-4-pyridyl]amino]-5-fluoro-N-methoxy-benzamide] showed an IC50 of 12 nM. This IC50 is about 52-fold lower than that of the molecule before.

On to `CONC(=O)c1cc(F)ccc1Nc1cc(Nc2cn(C)nc2C)ncc1C(F)(F)F` [Example 16.02, 2-[[2-[(1,3-dimethylpyrazol-4-yl)amino]-5-(trifluoromethyl)-4-pyridyl]amino]-5-fluoro-N-methoxy-benzamide], for which the IC50 amounted to 6 nM.
